{"source": "patent US6476062B2", "about": "“Chemokine receptor antagonists” (Schering Corporation, priority 2000, dated 2002)", "biological_target": "T1, human CCR5 chemokine receptor (Homo sapiens, UniProt P51681)", "T1 construct": "expressed in transfected cells; host or cells: NIH 3T3 cells (mouse fibroblasts) expressing human CCR5; membranes prepared from them", "T1 sequence (P51681 whole entry)": "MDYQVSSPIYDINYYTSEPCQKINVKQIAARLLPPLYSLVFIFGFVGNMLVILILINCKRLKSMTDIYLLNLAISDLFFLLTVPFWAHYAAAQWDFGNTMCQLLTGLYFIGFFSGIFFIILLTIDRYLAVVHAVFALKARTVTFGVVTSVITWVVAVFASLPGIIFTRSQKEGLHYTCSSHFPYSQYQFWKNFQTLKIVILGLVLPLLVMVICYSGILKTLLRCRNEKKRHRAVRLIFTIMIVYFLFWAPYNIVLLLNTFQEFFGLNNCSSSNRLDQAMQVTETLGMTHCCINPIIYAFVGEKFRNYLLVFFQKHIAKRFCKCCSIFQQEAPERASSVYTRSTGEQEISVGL", "experiment": "CCR5 membrane binding assay (inhibition of 125I-RANTES binding)", "conditions": "membranes from NIH 3T3 cells expressing human CCR5; 0.05 nM 125I Rantes; one hour; replicates of four; read-out: IC50, 50 percent inhibition of total membrane binding of 125I Rantes", "protocol": "A high throughput screen utilizing a CCR5 membrane binding assay identifies inhibitors of RANTES binding. This assay utilizes membranes prepared from NIH 3T3 cells expressing the human CCR5 chemokine receptor which have the ability to bind to RANTES, a natural ligand for the receptor. Using a 96-well plate format, membrane preparations are incubated with ^125I-RANTES in the presence or absence of compound for one hour. Compounds are serially diluted over a wide range of 0.001 ug/ml to 1 ug/ml and tested in triplicates. Reaction cocktails are harvested through glass fiber filters, and washed thoroughly. Total counts for replicates are averaged and data reported as the concentration required to inhibit 50 percent of total ^125I-RANTES binding. Compounds with potent activity in the membrane binding assay are further characterized in secondary cell-based HIV-1 entry and replication assays.\nThe activity of the compound of formula II was evaluated in the CCR5 membrane binding assay. The assay utilizes membranes prepared from NIH 3T3 cells which express human CCR5 chemokine receptor. RANTES (Regulated upon Activation, Normal T cell Expressed and Secreted) is a natural ligand for the CCR5. […] Total counts for replicates are averaged and 50 percent inhibition of total membrane binding of ^125I Rantes is determined."}
{"molecule": "C/C=C(\\C)[C@@H]1C=C[C@@H]2C[C@H](C)C[C@H](C)[C@H]2[C@@H]1/C(O)=C1/C(=O)N[C@H](C[C@@](C)(O)C(=O)O)C1=O", "note": "[Compound II]", "values": [{"measurement": "IC50", "result": 78.6, "unit": "nM"}]}
